According to US5753483A (priority 1995, dated 1998):

Assays:
[1] = system: UDP-GlcNAc pyrophosphorylase; conditions: reverse direction, at 1 mM inorganic pyrophosphate
Procedure: (§1) When measured in the reverse direction, either a direct assay or an indirect assay could be used. […] The incubation mixtures contained the following components in a final volume of 50 μl: 5 mM sodium pyrophosphate, 250 uM UDP-[^3 H]GlcNAc (2.2 Ci/mmol), 100 mM Tris HCl buffer, pH 8.5, 2 mM MgCl2, and various amounts of enzyme at the different stages of purification. […] The suspension was vortexed vigorously for 2 minutes, and was then centrifuged in a microfuge. The supernatant liquid was removed and saved, and the charcoal was washed with 1 ml of water. The supernatant liquid from this wash was combined with the first supernatant liquid, and an aliquot was removed and counted, as a measure of the formation of GlcNAc-1-P.
(§2) For the indirect assay, a modification of the spectrophotometric method of Munch-Petersen, (1956) Acta Chim. Scand. […] The assay mixtures contained 50 mM Tris-HCl buffer, pH 7.5, 1 mM MgCl2, 0.5 mM ADP, 1 mM glucose, 0.5 mM NADP, 1 mM inorganic pyrophosphate, 2 mM UDP-HexNAc and 2.5 units each of nucleoside diphosphate kinase, hexokinase and glucose-6-P dehydrogenase.

[2] = target: T1, Pyrophosphorylase (Sus scrofa, UniProt F1S210); experiment: Specificity of pyrophosphorylase (reverse direction); type: biochemical, pig
T1 construct: 64 and 55 kDa bands; native about 125 kDa
T1 sequence (F1S210 1-505): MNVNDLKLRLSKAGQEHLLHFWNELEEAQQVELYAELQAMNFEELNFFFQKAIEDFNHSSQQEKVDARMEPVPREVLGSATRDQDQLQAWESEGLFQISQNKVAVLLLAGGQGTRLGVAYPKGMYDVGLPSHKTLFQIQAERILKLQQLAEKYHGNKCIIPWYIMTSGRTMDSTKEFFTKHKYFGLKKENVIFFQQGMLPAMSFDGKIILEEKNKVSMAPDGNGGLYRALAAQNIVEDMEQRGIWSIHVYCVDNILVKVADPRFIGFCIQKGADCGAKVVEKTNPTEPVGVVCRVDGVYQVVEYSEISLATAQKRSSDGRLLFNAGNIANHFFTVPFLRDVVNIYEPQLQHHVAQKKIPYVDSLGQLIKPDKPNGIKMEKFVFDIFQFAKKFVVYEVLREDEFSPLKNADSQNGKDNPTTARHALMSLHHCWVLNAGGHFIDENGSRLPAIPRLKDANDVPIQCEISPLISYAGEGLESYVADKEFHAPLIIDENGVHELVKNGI
Procedure: as §1, §2
The substrate specificity of the purified enzyme was examined in both the forward and the reverse direction.

[3] = system: UDP-GlcNAc pyrophosphorylase; experiment: Inhibition of pyrophosphorolysis of UDP-[^3 H]GlcNAc by nucleotides (FIG. 3); type: biochemical, pig; conditions: increasing concentrations; reverse direction
Procedure: Activity was measured in the reverse direction (i.e., production of GlcNAc-1-P) as indicated.
as §1

[4] = target: T2, UDP-GlcNAc pyrophosphorylase (Sus scrofa, UniProt F1S210); experiment: Photoaffinity labeling of purified pyrophosphorylase and its inhibition (FIG. 5); type: binding, pig; conditions: unlabeled UDP-GalNAc or UDP-glucose
T2 construct: both 64 and 55 kDa bands photolabelled
T2 sequence (F1S210 1-505): as above
Procedure: Enzyme was incubated with radioactive probe in the presence or absence of various inhibitors, and some of the incubations were exposed to UV light to activate the probe. Each incubation was treated with trichloroacetic acid to precipitate the protein, and the pellet was resuspended in SDS and subjected to SDS-PAGE. Radioactive proteins were detected by exposure to film. […]

[5] = system: UDP-GlcNAc pyrophosphorylase; conditions: from 10 μmol GalNAc-1-P or glucose-1-P, and UTP
Procedure: The reaction products, formed in either the forward direction (i.e., uridine diphosphate sugars), or in the reverse direction (i.e., UTP and sugar-i-P's), were isolated by chromatography on a 1×20
column of DEAE-cellulose (HCO3 -), equilibrated in 10 mM NH4 HCO3. After application of the sample, the column was washed with the same solution and the retained products were eluted with 200 ml of a linear 10 to 300 mM gradient of NH4 HCO3. Fractions were analyzed for nucleotides by measuring the absorption at 260 nm, for radioactivity by scintillation counting, and for hexosamine by the Reissig test (J. Biol. Chem., 217, 959-966, 1955) or the or the Elson Morgan assay (Wheat, R. W. (1966) Meth. Enzymol. 8, 60-78). Peak fractions were pooled and concentrated on a rotary evaporator and NH4 H CO3 was removed by evaporation in the presence of triethylamine. The triethylamine was in turn removed by evaporation in the presence of methanol.
The reaction products were identified by chromatography, either directly, or following various treatments such as digestion with phosphodiesterase or alkaline phosphatase, or acid hydrolysis. Nucleotides were identified by TLC in the following systems: PEI plates developed in 0.2M and 0.4M solutions of LiCl; cellulose plates in ethanol: 1M ammonium acetate, pH 7.3 (7:3), or silica gel plates in ethanol: 1M ammonium acetate, pH 5.0 (7:3). N-acetyl-hexosamines were released from nucleotides by mild acid hydrolysis (0.01 N HCl, 100° C., 15 minutes) and identified by chromatography on borate-treated paper in n-butanol:pyridine:water (6:4:3) as described earlier by Cardini and Leloir, (1953) Arch. Biochem. Biophys., 45, 317-324.
After deproteinization, the aqueous phase was applied to a column of DE-52 and sugar phosphates and nucleoside diphosphate sugars were separated with a gradient of NH4 HCO3, as shown in FIG. 4. […] The peak was pooled and subjected to TLC in 3 different solvent systems as described above.
The characterization of these products was also based on the products produced by phosphosdiesterase, mild acid hydrolysis and other treatments.

[6] = system: sheep brain enzyme; conditions: cited from earlier work
[7] = system: enzyme from bacteria; conditions: cited from earlier work
[8] = system: UDP-GlcNAc pyrophosphorylase; conditions: calf liver and Staphylococcus aureus preparations; cited from earlier work

SMILES: CC(=O)N[C@H]1[C@@H](OP(=O)(O)OP(=O)(O)OC[C@H]2O[C@@H](n3ccc(=O)[nH]c3=O)[C@H](O)[C@@H]2O)O[C@H](CO)[C@H](O)[C@@H]1O [UDP-GalNAc, UDP-N-acetylgalactosamine]
- Km [1]: 200 µM
- Vmax [1]: 31.3 nmol/min
- substrate preference, reverse direction [2]: preferred UDP-GalNAc over UDP-GlcNAc
- Activity ([2]; 5 mM, PP = 1 mM): 19.7 nmol/min
- Relative Activity ([2]; 5 mM, PP = 1 mM, UDP-GalNAc = 100): 100%
- inhibition of reaction with UDP-[^3 H]GlcNAc [3]: inhibited by increasing concentrations
- inhibition of labeling [4]: also blocked, although not nearly as effectively
- amount formed [5]: 8.2 µmol
- amount formed, percent [5]: 82%
- activity as substrate (in words) [6]: not with UDP-GalNAc
- activity relative to UDP-GlcNAc [7]: 2.6%
- rate of phosphorolysis relative to UDP-GlcNAc [8]: about 2.8%
